The text below walks through data of US5096918A, “Isoindoline nitromethane derivatives” (Imperial Chemical Industries PLC, priority 1989, dated 1992).

This assay has as its target T1, aldose reductase (Bos taurus, UniProt P16116).
T1 construct: isolated in known manner from bovine lenses; from tissue; host or cells: bovine lens
In words: in vitro inhibition of partially purified aldose reductase (reduction of glucose to sorbitol, spectrophotometric). The format is biochemical. The note with it: partially purified enzyme from bovine lenses. The method, then: Thus, partially purified aldose reductase is isolated in known manner from bovine lenses. The percentage inhibition of this enzyme's ability in vitro to catalyse the reduction of aldoses to polyhydric alcohols, and particularly to reduce glucose to sorbitol, caused by a test compound is then determined using standard spectrophotometric methods.

For the molecule `O=[N+]([O-])CS(=O)(=O)N1CCCCC1` [Example 1, N-(nitromethylsulphonyl)piperidine], the midpoint of inhibition, the IC50, lay at 330 nM.
Regarding `O=[N+]([O-])CS(=O)(=O)N1CCOCC1` [N-(nitromethylsulphonyl)morpholine], the IC50 (usually the concentration that gives 50% inhibition) was 880 nM.
